The values that follow come from patent publication US20240239752A1, “BICYCLIC HETEROAROMATIC INHIBITORS OF KLK5” (BioCryst Pharmaceuticals, Inc., priority 2021, published 2024).

This test deals with T1, recombinant human KLK5 (Homo sapiens, UniProt Q9Y337).
T1 construct: purchased Novoprotein or R&D Systems C415 or 1108-SE
T1 sequence (Q9Y337 23-293): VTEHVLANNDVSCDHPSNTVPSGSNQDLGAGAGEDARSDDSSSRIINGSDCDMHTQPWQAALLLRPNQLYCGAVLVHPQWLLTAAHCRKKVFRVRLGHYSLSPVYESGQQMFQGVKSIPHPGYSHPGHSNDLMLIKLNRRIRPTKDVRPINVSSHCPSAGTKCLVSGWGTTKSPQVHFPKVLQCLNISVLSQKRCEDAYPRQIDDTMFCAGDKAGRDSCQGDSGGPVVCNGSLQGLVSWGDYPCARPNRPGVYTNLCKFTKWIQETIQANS
Put plainly: Kallikrein (KLK) 5 enzymatic assay (Boc-VPR-AMC fluorogenic substrate). Format: biochemical. The settings on record: recombinant human KLK5 0.1 μg/well, Boc-VPR-AMC 100 μM, pH 7.5, room temperature, 1% DMSO; tested a minimum of three times. An excerpt: Kallikrein-5 (KLK5) is a member of the serine protease family of proteolytic enzymes, confirmed to have trypsin-like activity (Michael I P, et al. Biochemical and enzymatic characterization of human kallikrein 5 (hK5), a novel serine protease potentially involved in cancer progression (J. Biol. Chem. 2005 Apr. 15; 280 (15): 14628-35). Boc-VPR-AMC is a fluorogenic peptide substrate composed of the short peptide chain, Valine-Proline-Arginine (VPR) and the fluorophore, 7-amino-4-methylcoumarin (AMC). KLK5 is able to cleave the fluorogenic peptide substrate Boc-VPR-AMC, releasing the AMC fluorophore, which causes a fluorescent emission in proportion with the enzymatic activity of KLK5. The KLK5 enzymatic activity is monitored by measuring fluorescent emission at wavelengths of 380 nm (excitation) and 460 nm (emission).
The IC50 value of compounds against KLK5 (i.e., the concentration of the compound that inhibits 50% of the enzymatic activity) was calculated according to the procedure reported by R&D systems (Recombinant human KLK5, Catalog Number: 1108-SE), with the exception the pH of the assay was modified from 8.0 to 7.5. Specifically, recombinant human KLK5 (Novoprotein Catalog #C415 or R&D systems Catalog #1108-SE) and fluorogenic peptide Boc-VPR-AMC substrate (R&D Catalog #ES011) were each separately diluted in assay buffer (0.1 M NaH2PO4 buffer, pH 7.5). The compounds of the disclosure were dissolved in DMSO at a concentration of 10 mM. A portion of this stock solution was added to the recombinant human KLK5 solution to provide a desired concentration of the compounds and the mixture was incubated at room temperature. The reaction was initiated by the addition of the fluorogenic peptide substrate at room temperature. The final concentration of recombinant human KLK5 was 0.1 μg/well and the final concentration of the fluorogenic substrate was 100 μM (final volume of 100 μL, 1% DMSO). The assays were performed in 96 well F16 Black Maxisorp Plate (Nunc Catalog #475515). Controls included assay buffer alone and enzyme solutions to which DMSO was added. The reaction rates were measured spectrophotometrically by excitation at 380 nm and emission at 460 nm on a Biotek Synergy H1 plate reader.
The reaction rate for enzyme alone was compared to the reaction rate of enzyme in the presence of compound and the percent inhibition was calculated as shown below:
Percent Inhibition=[Rate with inhibitor/Rate without inhibitor)]×100
An IC50 indicates a compound concentration that inhibits 50% of the enzymatic activity. Compounds were tested a minimum of three times.

SMILES strings stand for the structures.

A word on the IC50: it is the point on the concentration scale where inhibition reaches its midpoint. For `CCC(=O)N1CCC2(CC1)CC(Oc1ccccc1CC(=O)O)c1cc(-c3cccc4c(N)nccc34)ccc12` (single isomer, unassigned; (+)) [Compound 385d, (+)-2-(2-((5-(1-aminoisoquinolin-5-yl)-1′-propionyl-2,3-dihydrospiro[indene-1,4′-piperidin]-3-yl)oxy)phenyl)acetic acid], the IC50 was below 1000 nM.

In the case of `CCC(=O)N1CCC2(CC1)CC(Oc1ccccc1CC(=O)O)c1cc(-c3cccc4c(N)nccc34)ccc12` (single isomer, unassigned; (-)) [Compound 385e, (−)-2-(2-((5-(1-aminoisoquinolin-5-yl)-1′-propionyl-2,3-dihydrospiro[indene-1,4′-piperidin]-3-yl)oxy)phenyl)acetic acid], the IC50 was below 1000 nM.

As to `COc1ccc(CC(=O)O)c(OCc2c(C)oc3ccc(-c4cccc(C(=N)N)c4)cc23)c1` [7 g, 2-(2-((5-(3-carbamimidoylphenyl)-2-methylbenzofuran-3-yl)methoxy)-4-methoxyphenyl)acetic acid], the half-inhibitory concentration (IC50) was below 1000 nM.

In the case of `CC(C)n1nc(C(=O)Nc2ccccc2C(=O)O)c2cc(-c3cccc(C(=N)N)c3)ccc21` [Compound 1i, 2-(5-(3-carbamimidoylphenyl)-1-isopropyl-1H-indazole-3-carboxamido)benzoic acid], the IC50 was 1000 to 10000 nM.

Consider `CC(C)n1nc(COc2ccccc2CC(=O)O)c2cc(-c3ccc(C(=N)N)cc3)ccc21` [Compound 2g, 2-(2-((5-(4-carbamimidoylphenyl)-1-isopropyl-1H-indazol-3-yl)methoxy)phenyl)acetic acid], for which the IC50 is above 10000 nM.

Consider `CC(C)n1nc(C(=O)Nc2ccccc2C(=O)O)c2cc(-c3ccc(C(=N)N)cc3)ccc21` [Compound 3b, 2-(5-(4-carbamimidoylphenyl)-1-isopropyl-1H-indazole-3-carboxamido)benzoic acid], for which the IC50 was above 10000 nM.

In the case of `Cn1nc(COc2ccccc2CC(=O)O)c2cc(-c3cccc(C(=N)N)c3)ccc21` [Compound 4e, 2-(2-((5-(3-carbamimidoylphenyl)-1-methyl-1H-indazol-3-yl)methoxy)phenyl)acetic acid], the IC50 is below 1000 nM.

As to `COc1ccc(CC(=O)O)c(OCc2nn(C(C)C)c3ccc(-c4cccc(C(=N)N)c4)cc23)c1` [Compound 5e, 2-(2-((5-(3-carbamimidoylphenyl)-1-isopropyl-1H-indazol-3-yl)methoxy)-4-methoxyphenyl)acetic acid], the IC50 was below 1000 nM.

`CC(C)n1nc(COc2ccccc2CC(=O)O)c2cc(-c3cccc(C(=N)N)c3)ccc21` [Compound 6b, 2-(2-((5-(3-carbamimidoylphenyl)-1-isopropyl-1H-indazol-3-yl)methoxy)phenyl)acetic acid]: the IC50 was below 1000 nM.

`Nc1nccc2c(-c3ccc4nn(C5CCOC5)c(COc5ccccc5CC(=O)O)c4c3)cccc12` (centres unmarked) [Compound 8g, 2-(2-((5-(1-aminoisoquinolin-5-yl)-2-(tetrahydrofuran-3-yl)-2H-indazol-3-yl)methoxy)phenyl)acetic acid]: the IC50 was below 1000 nM.

With `CC1CC(n2nc(COc3ccccc3CC(=O)O)c3cc(-c4ccc5ccnc(N)c5c4)ccc32)C1` (centres unmarked) [Compound 9j, 2-(2-((5-(1-aminoisoquinolin-7-yl)-1-(3-methylcyclobutyl)-1H-indazol-3-yl)methoxy)phenyl)acetic acid], the IC50 was below 1000 nM.

`CC(C)(C)OC(=O)N1CC(n2nc(COc3ccccc3CC(=O)O)c3cc(-c4ccc5ccnc(N)c5c4)ccc32)C1` [Compound 10e, 2-(2-((5-(1-aminoisoquinolin-7-yl)-1-(1-(tert-butoxycarbonyl)azetidin-3-yl)-1H-indazol-3-yl)methoxy)phenyl)acetic acid]: the IC50 is below 1000 nM.

For the compound `Nc1nccc2ccc(-c3ccc4c(c3)c(COc3ccccc3CC(=O)O)nn4C3CC(F)(F)C3)cc12` [Compound 11e, 2-(2-((5-(1-aminoisoquinolin-7-yl)-1-(3,3-difluorocyclobutyl)-1H-indazol-3-yl)methoxy)phenyl)acetic acid], the IC50 was below 1000 nM.

Turning to `Nc1nccc2ccc(-c3ccc4nc(C5CC5)cc(COc5ccccc5CC(=O)O)c4c3)cc12` [Compound 12e, 2-(2-((6-(1-aminoisoquinolin-7-yl)-2-cyclopropylquinolin-4-yl)methoxy)phenyl)acetic acid], the IC50 is above 10000 nM.

On to `COc1ccc(CC(=O)O)c(OCc2c3cc(-c4ccc5ccnc(N)c5c4)ccc3nn2C2CCOC2)c1` (centres unmarked) [Compound 13c, 2-(2-((5-(1-aminoisoquinolin-7-yl)-2-(tetrahydrofuran-3-yl)-2H-indazol-3-yl)methoxy)-4-methoxyphenyl)acetic acid], for which the IC50 fell in the range of 1000 to 10000 nM.

`COC(=O)Cc1ccc(OC)cc1OCc1c2cc(-c3ccc4ccnc(N)c4c3)ccc2nn1C1CCOC1` (centres unmarked) [Compound 13d, methyl 2-(2-((5-(1-aminoisoquinolin-7-yl)-2-(tetrahydrofuran-3-yl)-2H-indazol-3-yl)methoxy)-4-methoxyphenyl)acetate]: the IC50 is above 10000 nM.

For the compound `Nc1nccc2c(-c3ccc4nn(C5CCCCC5)c(COc5ccccc5CC(=O)O)c4c3)cccc12` [Compound 14f, 2-(2-((5-(1-aminoisoquinolin-5-yl)-2-cyclohexyl-2H-indazol-3-yl)methoxy)phenyl)acetic acid], the IC50 was in the range of 1000 to 10000 nM.

Regarding `Cc1ccc(CC(=O)O)c(OCc2c3cc(-c4ccc5ccnc(N)c5c4)ccc3nn2C2CCCCC2)c1` [Compound 15d, 2-(2-((5-(1-aminoisoquinolin-7-yl)-2-cyclohexyl-2H-indazol-3-yl)methoxy)-4-methylphenyl)acetic acid], the IC50 is above 10000 nM.

Regarding `COc1ccc(CC(=O)O)c(OCc2c3cc(-c4ccc5ccnc(N)c5c4)ccc3nn2C2CCCCC2)c1` [Compound 16c, 2-(2-((5-(1-aminoisoquinolin-7-yl)-2-cyclohexyl-2H-indazol-3-yl)methoxy)-4-methoxyphenyl)acetic acid], the IC50 fell in the range of 1000 to 10000 nM.

Turning to `Cc1ccc(CC(=O)O)c(OCc2c3cc(-c4ccc5ccnc(N)c5c4)ccc3nn2C2CCC2)c1` [Compound 17e, 2-(2-((5-(1-aminoisoquinolin-7-yl)-2-cyclobutyl-2H-indazol-3-yl)methoxy)-4-methylphenyl)acetic acid], the IC50 is above 10000 nM.

Turning to `Cc1ccc(CC(=O)O)c(OCc2c3cc(-c4cccc5c(N)nccc45)ccc3nn2C2CCC2)c1` [Compound 18c, 2-(2-((5-(1-aminoisoquinolin-5-yl)-2-cyclobutyl-2H-indazol-3-yl)methoxy)-4-methylphenyl)acetic acid], the IC50 lay within 1000 to 10000 nM.

As for `COc1ccc(CC(=O)O)c(OCc2c3cc(-c4cccc5c(N)nccc45)ccc3nn2C2CCC2)c1` [Compound 19c, 2-(2-((5-(1-aminoisoquinolin-5-yl)-2-cyclobutyl-2H-indazol-3-yl)methoxy)-4-methoxyphenyl)acetic acid], the IC50 was 1000 to 10000 nM.

As to `COc1ccc(CC(=O)O)c(OCc2c3cc(-c4ccc5ccnc(N)c5c4)ccc3nn2C2CCC2)c1` [Compound 20b, 2-(2-((5-(1-aminoisoquinolin-7-yl)-2-cyclobutyl-2H-indazol-3-yl)methoxy)-4-methoxyphenyl)acetic acid], the IC50 lay in the range of 1000 to 10000 nM.

As to `Nc1nccc2c(-c3ccc4nn(C5CCCC5)c(COc5ccccc5CC(=O)O)c4c3)cccc12` [Compound 21e, 2-(2-((5-(1-aminoisoquinolin-5-yl)-2-cyclopentyl-2H-indazol-3-yl)methoxy)phenyl)acetic acid], the IC50 was below 1000 nM.

For `N=C(N)c1cccc(-c2ccc3nn(C4CCCC4)c(COc4ccccc4CC(=O)O)c3c2)c1` [Compound 22c, 2-(2-((5-(3-carbamimidoylphenyl)-2-cyclopentyl-2H-indazol-3-yl)methoxy)phenyl)acetic acid], the IC50 was below 1000 nM.

In the case of `COc1c(-c2ccc3nn(C4CCC4)c(COc4ccccc4CC(=O)O)c3c2)ccnc1C(=N)NO` [Compound 23g, 2-(2-((2-cyclobutyl-5-(2-(N-hydroxycarbamimidoyl)-3-methoxypyridin-4-yl)-2H-indazol-3-yl)methoxy)phenyl)acetic acid], the IC50 was in the range of 1000 to 10000 nM.
